Laboratory results reported in the SangsterLogP compilation.
Blank lines part the entries; values can stand above or below the compound they belong to.

Legend:
[1] = method code SF-AS, from DOI: 10.1021/jm00284a014, PMID: 5544400
[2] = method code SF-AS, from Korenman, Y.; Danilov, N. (1990). Extraction of alkyl salicylates from aqueous media. Journal of Applied Chemistry of the USSR, 63(1)125-129.
[3] = method code SF-AS, from DOI: 10.1016/0045-6535(83)90122-4
[4] = not given; remark: listed apart in the source
[5] = method code SF-HPLC, from PMID: 3799213; settings: pH 4.0
[6] = not given; remark: listed apart in the source
[7] = from Kurihara, N.; Yamakawa, K.; Fujita, T.; Nakajima, M. (1980). Studies on BHC isomers and related compounds. XXVI. Anaerobic degradation of tetra-, penta- and hexachlorocyclohexane isomers by rat liver …
[8] = method code SF-AS, from DOI: 10.1021/j150653a049
[9] = method code SF-C, from DOI: 10.1038/194178b0
[10] = method code SF-AS, from DOI: 10.1007/s001289900104, PMID: 8661852
[11] = method code SF-RC, from DOI: 10.1021/es60170a013
[12] = method code SF-GLC, from DOI: 10.1016/0378-4274(86)90173-6, PMID: 3952768
[13] = method code SF-AS, from DOI: 10.1007/bf01964075; settings: pH 2.1
[14] = method code SF-AS, from DOI: 10.1021/bi00730a008, PMID: 4688860
[15] = method code SF, from DOI: 10.1021/bk-1995-0606.ch005
[16] = method code SF-AS, from DOI: 10.1002/jhet.5570150704
[17] = method code SF-NMR, from DOI: 10.1002/jps.2600751016, PMID: 3795031
[18] = not given; remark: listed apart in the source
[19] = not given; remark: listed apart in the source
[20] = method code SF-AS, from DOI: 10.1248/cpb.32.2380
[21] = not given; remark: listed apart in the source
[22] = not given; remark: listed apart in the source
[23] = method code SF-GLC, from PMID: 6629728; settings: pH 7.4
[24] = not given; remark: listed apart in the source
[25] = method code SF-AS, from DOI: 10.1016/j.bioorg.2006.09.003, PMID: 17078995; settings: pH 7.4
[26] = method code SF-AS, from DOI: 10.1111/1523-1747.ep12263302, PMID: 6470515
[27] = method code SF-AS, from DOI: 10.1016/0005-2728(86)90252-5, PMID: 3015209; settings: pH 7.2

Compound: S=c1[nH]c2ccccc2[nH]1
- logP [1]: 1.66

Compound: COC(=O)c1ccccc1O
- logP [2]: 2.08

Compound: O=[N+]([O-])c1cc(Cl)c(Cl)cc1Cl
- logP [3]: 3.48

Compound: Nc1c(Cl)c(F)nc(OCC(=O)O)c1Cl
- logP [4]: 1.74

Compound: OCc1cc(Br)ccc1O
- logP [8]: 1.72

Compound: O=[N+]([O-])c1c(Cl)nc(-c2ncncn2)nc1Cl
- logP [10]: 2.29

Compound: Clc1cccc(Cl)c1
- logP [11]: 3.44

Compound: CNC(=O)CNC(C)=O
- logD [13]: -1.56

Compound: O=CNc1ccc(Cl)cc1
- logP [14]: 2.04

Compound: COC(=O)Nc1ccccc1
- logP [15]: 1.76

Compound: Cc1noc(-c2ccccn2)n1
- logP [16]: 0.89

Compound: ClC1=C(Cl)C(Cl)C(Cl)C(Cl)C1Cl (centres undefined)
- logP [7]: 4.31

Compound: O=NN(c1ccccc1)c1ccccc1
- logP [11]: 3.13

Compound: ClC1C=CC(Cl)C(Cl)C1Cl (centres undefined)
- logP [7]: 3.08

Compound: CCCC(CC)C(=O)O (centres undefined)
- logP: 2.23

Compound: Oc1cc(O)nc(-c2ncncn2)n1
- logP [10]: 1.49

Compound: O=[N+]([O-])c1c(Cl)c(Cl)cc(Cl)c1Cl
- logP [3]: 3.89

Compound: Cc1nnc(-c2ccccn2)o1
- logP [16]: 0.46

Compound: NS(=O)(=O)c1cc2c(cc1Cl)N=CNS2(=O)=O
- logP [20]: -0.1

Compound: CCCCC(CCC)C(=O)O (centres undefined)
- logP: 3.01

Compound: C1CC2OC2CC1C1CO1 (centres undefined)
- logD [23]: 0.44

Compound: C1=CCCC=CCCC=CCC1
- logP [24]: 4.12

Compound: O=C(O)C(=O)Nc1ccc(Cl)cc1
- logP [22]: 2.08

Compound: O=C(O)COc1cccc(Br)c1
- logP [9]: 2.4

Compound: Clc1cc(-c2ncncn2)c(Cl)nn1
- logP [10]: 0.84

Compound: COP(=S)(OC)Oc1ccc([N+](=O)[O-])cc1
- logP [15]: 2.86

Compound: COc1cccc(OC)c1C(=O)O
- logP [4]: 0.95

Compound: C1=C(c2ccccc2)CCN(c2ccccc2)C1
- logP [6]: 2.71

The remaining lines, values ahead:

- logP: 1.8
Compound: CCCC(C)C(=O)O (centres undefined)

- logD [5]: 1.11
Compound: O=C(OCn1c(=O)[nH]cc(F)c1=O)Oc1ccccc1

- logP [6]: 1.12
Compound: OCc1c(F)cccc1F

- logP [7]: 3.61
Compound: ClC1=CC(Cl)C(Cl)C(Cl)C1Cl (centres undefined)

- logP [9]: 2.3
Compound: CCc1cccc(OCC(=O)O)c1

- logP [12]: 1.88
Compound: CC(=O)CCC(C)C

- logP [12]: 2.92
Compound: CCCC(C)CCC(C)=O (centres undefined)

- logP [17]: 1.37
Compound: CC(CCO)C(F)(F)F (centres undefined)

- logP [18]: 0.31
Compound: CCNC(=O)c1cccnc1

- logP [19]: 2.16
Compound: CCNc1ccccc1

- logP [21]: 0.99
Compound: COc1cc(N)cc(OC)c1

- logP [22]: 0.83
Compound: O=C(O)CONC(=O)c1c(Cl)cccc1Cl

- logP [4]: 4.05
Compound: CC(C)c1cc(C(C)C)c(C(=O)O)c(C(C)C)c1

- logP [19]: 2.29
Compound: c1ccc2c(c1)CCCN2

- logD [5]: -0.04
Compound: CCOC(=O)OCn1cc(F)c(=O)[nH]c1=O

- logP [17]: 1.39
Compound: CC(CO)CC(F)(F)F (centres undefined)

- logP [8]: 0.97
Compound: Cc1ccc(O)c(CO)c1

- logD [25]: 1.5
Compound: COc1cc(CCOC(C)=O)ccc1O

- logP [12]: 4.09
Compound: CCCCCCCCCC(C)=O

- logP [26]: 1.13
Compound: Nc1cc([N+](=O)[O-])ccc1O

- logD [27]: 1.85
Compound: Cc1cc([N+](=O)[O-])ccc1NN=C(C#N)C#N
